According to US11203571B2, “Sulfonamides as modulators of sodium channels” (VERTEX PHARMACEUTICALS INCORPORATED, priority 2013, dated 2021):
pIC50: −log10 of the molar value.

What was measured:
[1] = Human liver microsome assay; format: in vitro ADME; details: 1 uM substrate, 0.5 mg/mL liver microsome, 2 mM NADPH, 37° C., referenced against time zero control
Procedure, shortened: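 Pooled human liver microsomes (0.5 mg/mL) with 1 uM substrate (0.2% DMSO), 2 mM NADPH, 0.1 M phosphate, shaken 30 min at 37° C. Quenched with cold acetonitrile; parent quantified by LC/MS/MS. Value is % substrate remaining at 30 min versus a time-zero control without NADPH.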

human Nav1.8 = human Nav1.8 (Homo sapiens (Human), UniProt Q9Y5Y9); assay: E-VIPR optical membrane potential assay with electrical stimulation; format: cell-based; details: HEK cells expressing human Nav1.8
human Nav1.8, sequence (Q9Y5Y9 whole entry): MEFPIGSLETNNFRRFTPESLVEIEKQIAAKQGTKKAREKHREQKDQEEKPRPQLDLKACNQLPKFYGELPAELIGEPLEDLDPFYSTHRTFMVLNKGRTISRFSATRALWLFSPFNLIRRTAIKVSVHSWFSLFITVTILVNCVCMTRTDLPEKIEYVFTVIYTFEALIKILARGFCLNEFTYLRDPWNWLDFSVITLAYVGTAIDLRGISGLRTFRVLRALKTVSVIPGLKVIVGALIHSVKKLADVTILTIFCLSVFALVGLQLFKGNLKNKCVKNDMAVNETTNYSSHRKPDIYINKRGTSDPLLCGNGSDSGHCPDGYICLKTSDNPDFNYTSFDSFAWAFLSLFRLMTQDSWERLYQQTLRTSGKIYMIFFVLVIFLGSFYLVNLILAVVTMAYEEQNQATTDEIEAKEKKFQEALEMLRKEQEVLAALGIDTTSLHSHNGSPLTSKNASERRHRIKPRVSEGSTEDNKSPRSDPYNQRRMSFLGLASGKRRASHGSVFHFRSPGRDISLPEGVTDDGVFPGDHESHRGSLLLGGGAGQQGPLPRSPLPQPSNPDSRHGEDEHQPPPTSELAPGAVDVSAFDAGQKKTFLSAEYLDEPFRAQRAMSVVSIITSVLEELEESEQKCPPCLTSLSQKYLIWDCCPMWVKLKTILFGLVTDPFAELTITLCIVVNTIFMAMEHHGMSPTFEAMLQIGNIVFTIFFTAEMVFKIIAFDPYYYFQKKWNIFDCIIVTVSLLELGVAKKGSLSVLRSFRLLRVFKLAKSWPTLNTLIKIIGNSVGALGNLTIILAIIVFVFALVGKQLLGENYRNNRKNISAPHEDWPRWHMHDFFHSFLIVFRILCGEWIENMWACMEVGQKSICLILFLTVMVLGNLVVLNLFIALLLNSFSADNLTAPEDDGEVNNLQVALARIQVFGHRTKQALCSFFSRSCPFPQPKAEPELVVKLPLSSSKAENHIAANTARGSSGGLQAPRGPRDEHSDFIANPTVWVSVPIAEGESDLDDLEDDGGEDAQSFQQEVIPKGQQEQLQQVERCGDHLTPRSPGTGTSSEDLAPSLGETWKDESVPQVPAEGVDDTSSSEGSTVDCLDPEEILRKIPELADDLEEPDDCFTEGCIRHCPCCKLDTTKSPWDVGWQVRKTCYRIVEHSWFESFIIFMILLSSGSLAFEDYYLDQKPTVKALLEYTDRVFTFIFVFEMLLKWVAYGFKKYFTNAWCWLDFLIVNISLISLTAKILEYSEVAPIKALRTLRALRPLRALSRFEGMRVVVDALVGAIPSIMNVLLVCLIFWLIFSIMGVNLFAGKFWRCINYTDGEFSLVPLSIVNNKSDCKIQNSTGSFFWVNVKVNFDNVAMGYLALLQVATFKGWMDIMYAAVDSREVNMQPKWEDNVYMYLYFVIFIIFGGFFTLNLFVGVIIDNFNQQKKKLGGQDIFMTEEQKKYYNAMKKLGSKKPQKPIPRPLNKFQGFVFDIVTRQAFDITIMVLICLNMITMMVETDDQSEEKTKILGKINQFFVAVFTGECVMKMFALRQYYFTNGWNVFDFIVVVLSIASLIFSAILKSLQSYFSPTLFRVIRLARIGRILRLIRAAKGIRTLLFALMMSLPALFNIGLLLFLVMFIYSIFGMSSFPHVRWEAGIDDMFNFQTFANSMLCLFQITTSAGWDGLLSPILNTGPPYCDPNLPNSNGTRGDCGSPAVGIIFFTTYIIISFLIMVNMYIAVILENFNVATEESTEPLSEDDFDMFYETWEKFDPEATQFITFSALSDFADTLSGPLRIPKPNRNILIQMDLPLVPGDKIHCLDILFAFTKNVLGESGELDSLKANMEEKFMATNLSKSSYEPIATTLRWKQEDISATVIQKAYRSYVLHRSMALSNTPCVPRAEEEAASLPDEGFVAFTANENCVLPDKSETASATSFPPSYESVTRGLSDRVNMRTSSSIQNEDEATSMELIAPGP
Procedure, shortened: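 HEK cells expressing human Nav1.8 were loaded with CC2-DMPE (8 μM) and DiSBAC6(3) (2.5 μM), then given compound for 20-35 min at room temperature (0.625% DMSO). Cells received a 10-s current-controlled electrical stimulus. Response was the stimulated/baseline 460/580 nm emission ratio (Rf/Ri), with tetracaine (125 μM) as positive control.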

| SMILES | HLM: percent unchanged after 30 min [1] [%] | pIC50 (human Nav1.8) |
| --- | --- | --- |
| Cc1cc(F)ccc1Oc1cc(Cl)cc(Cl)c1C(=O)Nc1cccc(S(N)(=O)=O)c1 [Compound 96, 2,4-dichloro-6-(4-fluoro-2-methylphenoxy)-N-(3-sulfamoylphenyl)benzamide] | 96 | 9.00 |
| NS(=O)(=O)c1cccc(NC(=O)c2c(Cl)cc(Cl)cc2Oc2ccc(OC(F)(F)F)cc2)c1 [Compound 97, 2,4-dichloro-N-(3-sulfamoylphenyl)-6-(4-(trifluoromethoxy)phenoxy)benzamide] | 102 | 8.40 |
| COc1cc(Cl)ccc1Oc1cc(Cl)cc(Cl)c1C(=O)Nc1cccc(S(N)(=O)=O)c1 [Compound 98, 2,4-dichloro-6-(4-chloro-2-methoxyphenoxy)-N-(3-sulfamoylphenyl)benzamide] | 62 | 9.10 |
| COc1ccc(Oc2cc(Cl)cc(Cl)c2C(=O)Nc2cccc(S(N)(=O)=O)c2)c(F)c1 [Compound 99, 2,4-dichloro-6-(2-fluoro-4-methoxyphenoxy)-N-(3-sulfamoylphenyl)benzamide] | 63 | 8.30 |
